# Data reported in patent EP0635577B1, “Screen for inhibitors of melanin biosynthesis” (BASF AKTIENGESELLSCHAFT, priority 1993, dated 1995).
# Where a name gives a salt, the structure may show the parent alone.
# Test system: Cladosporium cucumerinum
# Experiment: melanin biosynthesis inhibition screen, disk diffusion assay on solidified culture
# Format: cell-based
# Conditions: not given
# Experimental: Potato dextrose medium (PDM) for the screening test is prepared by melting
# The mixture is autoclaved as 150 ml aliquots at 121°C for 25 minutes.
# A chloramphenicol stock solution is prepared to contain 15 mg chloramphenicol per mL absolute ethanol and is stored at -20°C.
# Conidia from Cladosporium cucumerinum, 10^7/mL in 0.03% Tween 20™, retain their viability for at least 12 weeks of storage in 1.8 ml cryovials at -85°C. Inoculum for running the screen are raised once every three months and stored without a cryoprotectant at the working concentration of 10^7 conidia/mL.
# Fresh inoculum suspensions are prepared from conidial suspensions stored at -85°C. A cryovial is thawed by hand-heat, and 200 uL spread on the surface of PDA in 9 cm Petri dishes. Plates are placed in a resin box (to prevent fungal escape) and incubated at room temperature, 40 cm below laboratory fluorescent lights. Seven days later conidia are collected. Five mL of 0.03% Tween 20™ is added to each plate, and the conidia are released by rubbing the mycelium with a glass rod. The suspension is passed through a layer of sterile Miracloth™ and the concentration adjusted to 10^7 conidia/mL in 0.03% Tween 20™ using a haemocytometer. Aliquots of 1 mL are dispensed into cryovials and placed in a polystyrene holder to freeze slowly to -85°C.
# For the test, 150 mL of PDM is cooled to 35°C, and 0.1 mL of chloramphenicol stock solution is added by gentle swirling. A vial of C. cucumerinum conidial suspension (10^7 conidia/ml in Tween 20™) thawed with hand-heat is mixed into the growth medium using gentle swirling. The mixture is poured immediately into a Biotray, and the agar is allowed to solidify.
# Test compounds are applied to 0.63 cm (¼ inch) filter disks. Each test includes a positive control, 200 ng tricyclazole in 20% dimethyl sulphoxide (DMSO). The plate is incubated at room-temperature (∼23°C) 40 cm below laboratory fluorescent lights. The plate is read 40 hours later. […] The Biotrays are autoclaved before disposal.
# The compounds are applied as 20 ul droplets from a 1 mg/ml stock solution.
Molecule,"Observation: fungal thinning, radius","Observation: inhibits, radius cleared",Observation
Nc1ncnc2c1ccn2[C@@H]1O[C@H](CO)[C@@H](O)[C@H]1O [Tubercidin],"fungal thinning, 10 mm radius",,
C[C@@H]1C[C@@H]([C@H](O)CC2CC(=O)NC(=O)C2)C(=O)[C@@H](C)C1 [Cycloheximide],,"inhibits, 22 mm radius cleared",
CN[C@H](CC(C)C)C(=O)N[C@H]1C(=O)N[C@@H](CC(N)=O)C(=O)N[C@H]2C(=O)N[C@H]3C(=O)N[C@H](C(=O)N[C@H](C(=O)O)c4cc(O)cc(O)c4-c4cc3ccc4O)[C@H](O)c3ccc(c(Cl)c3)Oc3cc2cc(c3O[C@@H]2O[C@H](CO)[C@@H](O)[C@H](O)[C@H]2O[C@H]2C[C@](C)(N)[C@H](O)[C@H](C)O2)Oc2ccc(cc2Cl)[C@H]1O [Vancomycin HCl],,,no effect on growth or pigmentation
CN1C(=O)[C@]23CC4=CC=C[C@H](O)[C@H]4N2C(=O)[C@@]1(CO)SS3 [Gliotoxin],,"inhibits, 17 mm radius cleared",

# Same assay, conditions: Antifungal Panel; effect on growth and pigmentation in words; 20 ul droplets from a 1 mg/ml stock solution on filter disk; read 40 hours later
row,Molecule,Observation
1,C=CC1(C)OC(=O)N(c2cc(Cl)cc(Cl)c2)C1=O (centres unmarked) [Ronilon],very slight effect on growth
2,Maneb,"no effect on pigmentation, growth thin"
3,C[C@@H]1[C@H](O)[C@@H](C)/C=C/C=C/C=C/C=C/C=C/C=C/C=C/[C@H](O[C@@H]2O[C@H](C)[C@@H](O)[C@H](N)[C@@H]2O)C[C@@H]2O[C@](O)(C[C@@H](O)C[C@@H](O)[C@H](O)CC[C@@H](O)C[C@@H](O)CC(=O)O[C@H]1C)C[C@H](O)[C@H]2C(=O)O [Amphotericin B],no effect on growth or pigmentation
4,COCC(=O)N(c1c(C)cccc1C)C(C)C(=O)OC (centres unmarked) [Metalaxyl],no effect on growth or pigmentation

# Same assay, conditions: Antifungal Panel; growth inhibition zone; 20 ul droplets from a 1 mg/ml stock solution on filter disk; read 40 hours later
row,Molecule,"Observation: inhibits, radius cleared"
1,CP(=O)(O)CC[C@H](N)C(=O)O [Phosphenothricin],"inhibits, 20 mm radius cleared"
2,Clc1cc(Cl)c(OCC#CI)cc1Cl [Haloprofin],"inhibits, 13 mm radius cleared"
3,NC(=O)OC[C@H](O)[C@@H](O)[C@H](N)C(=O)N[C@H](C(=O)O)[C@H]1O[C@@H](n2cc(C(=O)O)c(=O)[nH]c2=O)[C@H](O)[C@@H]1O [Polyoxin D],"inhibits, 7 mm radius cleared"
4,C[C@@H]([C@H](N)C(=O)N[C@H](C(=O)O)[C@H]1O[C@@H](n2ccc(=O)[nH]c2=O)[C@H](O)[C@@H]1O)[C@H](O)c1ccc(O)cn1 [Nikkomycin],"inhibits, 38 mm radius cleared"
5,CCCCCCCCCCCCCN1CC(C)OC(C)C1 (centres unmarked) [Tridemorph],"inhibits, 6 mm radius cleared"
6,Tunicamycin,"inhibits, 22 mm radius cleared"
7,Nc1nc[nH]n1 [Amino-triazole],"inhibits, 13 mm radius cleared"
8,Antimycin,"inhibits, 13 mm radius cleared"
9,CCCCNC(=O)n1c(NC(=O)OC)nc2ccccc21 [Benomyl],"inhibits, 31 mm radius cleared"
10,NC[C@H]1O[C@H](O[C@H]2[C@H](O)[C@@H](O[C@H]3O[C@H](CO)[C@@H](O)[C@H](N)[C@H]3O)[C@H](N)C[C@@H]2N)[C@H](O)[C@@H](O)[C@@H]1O [Kanamycin],"inhibits, 10 mm radius cleared"
11,Nc1nc(=O)[nH]cc1F [5-Fluoro-Cytosine],"inhibits, 35 mm radius cleared"
12,Cc1cccc(N(C)C(=S)Oc2ccc3ccccc3c2)c1 [Tolnaftate],"inhibits, 13 mm radius cleared"
13,CC(=O)N1CCN(c2ccc(OCC3COC(Cn4ccnc4)(c4ccc(Cl)cc4Cl)O3)cc2)CC1 (centres unmarked) [Ketoconazole],"inhibits, 26 mm radius cleared"
14,CC1=C(C(=O)Nc2ccccc2)SCCO1 [Carboxin],"inhibits, 21 mm radius cleared"
15,COC(=O)c1ccccc1S(=O)(=O)NC(=O)Nc1nc(C)cc(C)n1 [Sulfometuron methyl],"inhibits, 6 mm radius cleared"
16,OC(c1ccc(Cl)cc1)(c1cncnc1)c1ccccc1Cl (centres unmarked) [Fenarimole],"inhibits, 22 mm radius cleared"
17,Clc1ccc(COC(Cn2ccnc2)c2ccc(Cl)cc2Cl)cc1 (centres unmarked) [Econazole],"inhibits, 32 mm radius cleared"

# Same assay, conditions: C. cucumerinum Antibiotic Panel; effect on growth and pigmentation in words; screen of Example 1
row,Molecule,Observation
1,Trichomycin,no effect on growth or pigmentation
2,[H]/N=C(/N)N[C@H]1[C@H](O)[C@@H](O)[C@H](O[C@@H]2O[C@@H](C)[C@](O)(C=O)[C@H]2O[C@@H]2O[C@@H](CO)[C@H](O)[C@@H](O)[C@@H]2NC)[C@@H](N/C(N)=N\[H])[C@@H]1O [Streptomycin Sulfate],no effect on growth or pigmentation
3,Flavofungin,no effect on growth or pigmentation
4,C[C@H]1CCC/C=C/[C@@H]2C[C@H](O)C[C@H]2[C@H](O)/C=C/C(=O)O1 [Ascotoxin],no effect on growth or pigmentation
5,Protomycin/Streptimidone,no effect on growth or pigmentation
6,Neohumidin,no effect on growth or pigmentation
7,CSC[S@+]([O-])C[C@H](CO)NC(=O)/C=C/c1c(C)[nH]c(=O)[nH]c1=O [Sparsomycin],no effect on growth or pigmentation
8,Hamycin,no effect on growth or pigmentation
9,Dermostatin,no effect on growth or pigmentation
10,CCCCC[C@@H](O)[C@H]1C(=O)O[C@H](C)[C@@H](O)/C=C/C=C/C=C/C=C/C=C(\C)[C@@H](O)[C@H](O)[C@H](O)C[C@H](O)C[C@H](O)C[C@H](O)C[C@H](O)C[C@@H]1O [Pentamycin],no effect on growth or pigmentation
11,C[C@@H]1C/C=C/C=C/C=C/C=C/[C@H](O[C@@H]2O[C@H](C)[C@@H](O)[C@H](N)[C@@H]2O)C[C@@H]2O[C@](O)(C[C@@H](O)C[C@H]3O[C@@H]3/C=C/C(=O)O1)C[C@H](O)[C@H]2C(=O)O [Tennecetin],no effect on growth or pigmentation
12,Aureofungin,no effect on growth or pigmentation
13,Monicamycin,no effect on growth or pigmentation
14,Neomycin Sulfate,no effect on growth or pigmentation
15,Ristocedin,no effect on growth or pigmentation

# Same assay, conditions: C. cucumerinum Antibiotic Panel; growth inhibition zone; screen of Example 1
row,Molecule,"Observation: inhibits, radius cleared"
1,Azalomycin,"inhibits, 14 mm radius cleared"
2,CC1CCC(=O)C=CC(=O)OC(C)CCC(=O)C=CC(=O)O1 (centres unmarked) [Pyrenophorin],"inhibits, 12 mm radius cleared"
3,Thioaurin,"inhibits, 16 mm radius cleared"
4,Cc1cc(O)c2c(c1)C(=O)[C@]13C(=C2O)C(=O)[C@@H]2[C@H](O)[C@H]1[C@@H]1[C@@H](O)[C@H]3C(=O)C3=C(O)c4c(O)cc(C)cc4C(=O)[C@]312 [Rugulosin],"inhibits, 9 mm radius cleared"
5,C/C=C/[C@H]1O[C@@](O)([C@@H](C)[C@H](O)[C@H](C)[C@H]2OC(=O)/C(OC)=C/C(C)=C/[C@@H](C)[C@@H](O)[C@@H](CC)[C@@H](O)[C@H](C)C/C(C)=C/C=C/[C@@H]2OC)C[C@@H](O[C@H]2C[C@@H](O)[C@H](OC(N)=O)[C@@H](C)O2)[C@@H]1C [Folimycin],"inhibits, 4 mm radius cleared"
6,CC(=O)Nc1c2sscc-2n(C)c1=O [Thiolutin],"inhibits, 23 mm radius cleared"
7,C[C@H]1C[C@H](C)C(=O)[C@@H]([C@H](O)CC2CC(=O)NC(=O)C2)C1 [Naramycin B],"inhibits, 15 mm radius cleared"
8,CN[C@@H]1C[C@H](N)[C@@H](O)[C@H](O[C@@H]2O[C@H](CO)[C@H](O)[C@@H]3OC4(O[C@H]23)O[C@H]([C@@H](N)CO)[C@H](O)[C@H](O)[C@H]4O)[C@H]1O (some centres unmarked) [Destomycin A],"inhibits, 18 mm radius cleared"

# Same assay, conditions: C. cucumerinum Antibiotic Panel; screen of Example 1
row,Molecule,"Observation: fungal thinning, radius"
1,Sulfocidin,"fungal thinning, 5 mm radius"
2,COc1oc([C@H]2C/C(=C/C(C)=C/c3ccc([N+](=O)[O-])cc3)CO2)c(C)c(=O)c1C [Mycolutein],"fungal thinning, 16 mm radius"
